The source of these data is patent US10550073B2, “Benzamide derivative” (CSPC ZHONGQI PHARMACEUTICAL TECHNOLOGY (SHIJIAZHUANG) CO., …, priority 2015, dated 2020).

Data set [1] relates to TNF-α. The experiment in a line: In vitro cell experiment: LPS-stimulated TNF-α release in THP-1 cells (ELISA). The data set is classed as cell-based. The note with it: Homo sapiens; TNF-α in supernatant of THP-1 cells, compound 2 h then LPS 10 μg/ml 2 h. From the text: I. In Vitro Cell Experiment
Cells: human monocytic leukemia THP-1 cells (obtained from the Shanghai Cell Bank of Chinese Academy of Sciences).
Lipopolysaccharides: from Escherichia coli O55: B5, L2880 (Sigma).
Kit: Human TNF-α Elisa MAX Deluxe Set, 430206 (Biolegend)

Data set [2] deals with p38a (Homo sapiens (Human), UniProt Q16539). The experiment in a line: Assay of p38 kinase activity (fluorescence, peptide substrate). In kind it is biochemical. The note with it: 40 nM p38a, 100 μM ATP, 90 minutes. The method, then:
II. Assay of p38 Kinase Activity
Experimental Method: 40 nM p38a was added into a reaction buffer, which include 20 mM HEPES (4-hydroxyethylpiperazine ethanesulfonic acid), 5 mM MgCl2 and 1 mM DTT (dithiothreitol) at pH 7.4. 40 μM phosphorylated peptide substrate was added, followed by different concentrations of drugs and 100 μM ATP (adenosine triphosphate), and reacted for 90 minutes in dark. […] The IC50 values of the compounds were obtained according to the fluorescence values.

Data set [3] concerns the target CYP450, 2C9 enzymes (Homo sapiens (Human), UniProt P11712). The data set can be described thus: CYP450 enzyme inhibition test in human liver microsome. In kind it is in vitro ADME. The note with it: CYP450 2C9, LC-MS/MS.

p38a, sequence (Q16539 whole entry): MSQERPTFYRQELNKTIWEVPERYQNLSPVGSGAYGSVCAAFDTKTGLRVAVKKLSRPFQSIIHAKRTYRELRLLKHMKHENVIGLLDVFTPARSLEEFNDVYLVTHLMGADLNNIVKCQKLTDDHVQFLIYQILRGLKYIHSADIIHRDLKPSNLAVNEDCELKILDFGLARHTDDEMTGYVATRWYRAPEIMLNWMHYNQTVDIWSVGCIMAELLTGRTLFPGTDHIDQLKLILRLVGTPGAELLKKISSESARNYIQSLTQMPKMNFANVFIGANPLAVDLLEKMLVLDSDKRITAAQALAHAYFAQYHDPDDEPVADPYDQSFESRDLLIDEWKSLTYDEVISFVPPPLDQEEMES
CYP450, 2C9 enzymes, sequence (P11712 whole entry): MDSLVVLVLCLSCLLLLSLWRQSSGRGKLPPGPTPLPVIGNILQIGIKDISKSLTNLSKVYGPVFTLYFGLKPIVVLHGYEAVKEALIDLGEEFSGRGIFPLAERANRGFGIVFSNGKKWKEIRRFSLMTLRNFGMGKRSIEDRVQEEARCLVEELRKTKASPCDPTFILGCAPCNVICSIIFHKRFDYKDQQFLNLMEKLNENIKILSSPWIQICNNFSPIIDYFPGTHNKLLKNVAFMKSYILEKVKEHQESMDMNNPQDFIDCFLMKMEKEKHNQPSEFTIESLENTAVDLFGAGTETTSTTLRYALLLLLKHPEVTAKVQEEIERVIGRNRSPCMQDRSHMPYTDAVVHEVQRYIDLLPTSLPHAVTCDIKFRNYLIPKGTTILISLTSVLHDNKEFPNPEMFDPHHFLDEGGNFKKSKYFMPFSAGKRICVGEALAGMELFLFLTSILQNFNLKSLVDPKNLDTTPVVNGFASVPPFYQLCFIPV

Consider `Cc1c(F)cc(C(=O)NC2CC2)cc1-c1ccc2nc(NCC(C)C)sc2c1` [Example 51, N-cyclopropyl-3-fluoro-5-(2-(isobutylamino)benzo[d]thiazol-6-yl)-4-methylbenzamide], for which the half-maximal inhibitory concentration (IC50) in data set [1] is < 5 nM; in data set [2], 5 to 10 nM.
Taken in the same sequence, the figures for `Cc1c(F)cc(C(=O)NC2CC2)cc1-c1ccc(C(=O)NCCC(C)C)nn1` [Example 60, 6-(5-(cyclopropylcarbamoyl)-3-fluoro-2-methylphenyl)-N-isopentylpyridazin-3-carboxamide] were 5 to 10 nM and < 5 nM.
Take `Cc1c(F)cc(C(=O)NC2CC2)cc1-c1ccc(C(=O)NC2CCCCC2)cn1` [Example 10, N-cyclohexyl-6-(5-(cyclopropylcarbamoyl)-3-fluoro-2-methylphenyl) nicotinamide]: the concentration for half-maximal inhibition (IC50) in data set [1] is < 5 nM.
Still for that read-out and setting: the result for `Cc1c(F)cc(C(=O)NC2CC2)cc1-c1ccc(NC(=O)C2CCCCC2)c(F)c1` [Example 47, 4′-(cyclohexanecarboxamido)-N-cyclopropyl-3′,5-difluoro-6-methyl-[1,1′-biphenyl]-3-carboxamide] reads 5 to 10 nM.
Still for that read-out and setting: the result for `Cc1c(F)cc(C(=O)NC2CC2)cc1-c1ccc(C(=O)N(C)C2CCCC2)c(F)c1` [Example 33, N^4′-cyclopentyl-N^3-cyclopropyl-3′,5-difluoro-N^4′,6-dimethyl-[1,1′-biphenyl]-3,4′-dicarboxamide] reads < 5 nM; that for `Cc1c(F)cc(C(=O)NC2CC2)cc1-c1ccc(C(=O)NC2CCCC2)nc1` [Example 17, N-cyclopentyl-5-(5-(cyclopropylcarbamoyl)-3-fluoro-2-methylphenyl)pyridin-2-foramamide], < 5 nM.
As for `Cc1c(F)cc(C(=O)NC2CC2)cc1-c1ccc(C(=O)NCC(C)C)nc1` [Example 15, 5-(5-(cyclopropylcarbamoyl)-3-fluoro-2-methylphenyl)-N-isobutylpyridin-2-formamide], the IC50 in data set [1] and in data set [2] was < 5 nM each time.
`Cc1c(F)cc(C(=O)NC2CC2)cc1-c1ccc(C(=O)N2CCCCC2)s1` [Example 55, N-cyclopropyl-3-fluoro-4-methyl-5-(5-(piperidin-1-carbonyl)thiophen-2-yl) benzamide]: the concentration for half-maximal inhibition (IC50) in data set [1] and in data set [2] was 5 to 10 nM throughout.
With `Cc1c(F)cc(C(=O)NC2CC2)cc1-c1ccc(C(=O)N(C)C2CCCCC2)cc1` [Example 25, N^4′-cyclohexyl-N^3-cyclopropyl-5-fluoro-N^4′,6-dimethyl-[1,1′-biphenyl]-3,4′-dicarboxamide], the figures for the IC50 in data set [1] and in data set [2] were < 5 nM and 5 to 10 nM, respectively.
For `CCCCNc1nc2ccc(-c3cc(C(=O)NC4CC4)cc(F)c3C)cc2s1` [Example 52, 3-(2-(butylamino)benzo [d]thiazol-6-yl)-N-cyclopropyl-5-fluoro-4-methylbenzamide], in that order: 5 to 10 nM and 5 to 10 nM.
As to `C=CCNC(=O)c1cc(F)c(C)c(-c2ccc(C(=O)NCC(C)(C)C)cn2)c1` [Example 81, 6-(5-(allylcarbamoyl)-3-fluoro-2-methylphenyl)-N-neopentylnicotinamide], in data set [1], the 50% inhibitory concentration (IC50) was in the range of 5 to 10 nM.
The same measure, in the same setting: under `Cc1c(F)cc(C(=O)NC2CC2)cc1-c1ccc(C(=O)NC2CCCC2)cc1` [Example 22] stands < 5 nM.
With `Cc1c(F)cc(C(=O)NC2CC2)cc1-c1ccc(C(=O)N(C)CC(C)C)nc1` [Example 16, 5-(5-(cyclopropylcarbamoyl)-3-fluoro-2-methylphenyl)-N-isobutyl-N-methylpyridin-2-formamide], the values for the IC50 in data set [1], in data set [2] and in data set [3] were < 5 nM, < 5 nM and > 50000 nM, respectively.
`C=CCNC(=O)c1cc(F)c(C)c(-c2ccc(C(=O)NC3CCCC3)nn2)c1` [Example 79, 6-(5-(allylcarbamoyl)-3-fluoro-2-methylphenyl)-N-cyclopentylpyridazin-3-carboxamide]: the concentration for half-maximal inhibition (IC50) in data set [1] was 5 to 10 nM; in data set [2] it was < 5 nM.
On to `Cc1c(F)cc(C(=O)NC2CC2)cc1-c1ccc(C(=O)NC2CCCCC2)cc1` [Example 24, N^4′-cyclohexyl-N^3-cyclopropyl-5-fluoro-6-methyl-[1,1′-biphenyl]-3,4′-dicarboxamide], for which the half-inhibitory concentration (IC50) in data set [1] was 5 to 10 nM.
In the case of `CCCCCNC(=O)c1ccc(-c2cc(C(=O)NC3CC3)cc(F)c2C)nc1` [Example 9, 6-(5-(cyclopropylcarbamoyl)-3-fluoro-2-methylphenyl)-N-pentylnicotinamide], the IC50 in data set [1] and in data set [2] was 5 to 10 nM each time.
`Cc1c(F)cc(C(=O)NC2CC2)cc1-c1ccc(C(=O)NCC(C)(C)C)c(N)c1` [Example 42, 3′-amino-N^3-cyclopropyl-5-fluoro-6-methyl-N^4′-neo pentyl-[1,1′-biphenyl]-3,4′ -dicarboxamide]: the 50% inhibitory concentration (IC50) in data set [1] was 5 to 10 nM; in data set [3], > 50000 nM.
Take `Cc1cc(-c2cc(C(=O)NC3CC3)cc(F)c2C)ccc1NC(=O)NC1CCCC1` [Example 50, 4′-(3-cyclopentylureido)-N-cyclopropyl-5-fluoro-3′,6-dimethyl-[1,1′-biphenyl]-3-carboxamide]: in data set [1], the IC50 is < 5 nM.
For the compound `Cc1c(F)cc(C(=O)NC2CC2)cc1-c1ccc(C(=O)N2CCC(C)CC2)s1` [Example 56, N-cyclopropyl-3-fluoro-4-methyl-5-(5-(4-methylpiperidin-1-carbonyl)thiophen-2-yl)benzamide], the half-inhibitory concentration (IC50) in data set [1] and in data set [2] was 5 to 10 nM throughout.
Compound `Cc1c(F)cc(C(=O)NC2CC2)cc1-c1ccc(C(=O)N2CCC(C)CC2)cc1` [Example 26, N-cyclopropyl-5-fluoro-6-methyl-4′-(4-methylpiperidin-1-carbonyl)-[1,1′-biphenyl]-3-carboxamide] registered a half-maximal inhibitory concentration (IC50) in data set [1] of 5 to 10 nM.
Still for that read-out and setting: the result for `Cc1c(F)cc(C(=O)NC2CC2)cc1-c1ccc(C(=O)N2CCCCCC2)cc1` [Example 28, 4′-(azepane-1-carbonyl)-N-cyclopropyl-5-fluoro-6-methyl-[1,1′-biphenyl]-3-carboxamide] reads 5 to 10 nM; that for `Cc1c(F)cc(C(=O)NC2CC2)cc1-c1ccc(C(=O)N(C)C2CCCC2)cc1` [Example 23, N^4′-cyclopentyl-N^3-cyclopropyl-5-fluoro-N^4′,6-dimethyl-[1,1′-biphenyl]-3,4′-dicarboxamide], 5 to 10 nM.
With `CCC(C)NC(=O)c1ccc(-c2cc(C(=O)NC3CC3)cc(F)c2C)nn1` (stereo not drawn) [Example 58, 6-(5-(cyclopropylcarbamoyl)-3-fluoro-2-methylphenyl)-N-(sec-butyl)pyridazin-3-carboxamide], the concentration for half-maximal inhibition (IC50) in data set [1] is < 5 nM; in data set [2] it was < 5 nM; in data set [3] it was > 50000 nM.
`Cc1c(F)cc(C(=O)NC2CC2)cc1-c1ccc(C(=O)N(C)CC(C)C)c(F)c1` [Example 31, N^3-cyclopropyl-3′,5-difluoro-N^4′-isobutyl-N^4′,6-dimethyl-[1,1′-biphenyl]-3,4′-dicarboxamide]: the IC50 in data set [1] and in data set [2] was < 5 nM throughout.
Take `Cc1c(F)cc(C(=O)NC2CC2)cc1-c1ccc(C(=O)NC2CCCCC2)nn1` [Example 5, N-cyclohexyl-6-(5-(cyclopropylcarbamoyl)-3-fluoro-2-methylphenyl) pyridazin-3-carboxamide]: the IC50 is < 5 nM in data set [1], < 5 nM in data set [2] and > 50000 nM in data set [3].
`Cc1c(F)cc(C(=O)NC2CC2)cc1-c1ccc2nc(NC3CCCC3)sc2c1` [Example 54, 3-(2-(cyclopentylamino)benzo[d]thiazol-6-yl)-N-cyclopropyl-5-fluoro-4-methylbenzamide]: in data set [1], the IC50 is 5 to 10 nM.
Take `C=CCNC(=O)c1cc(F)c(C)c(-c2ccc(C(=O)NC3CCCCC3)nn2)c1` [Example 80, 6-(5-(allylcarbamoyl)-3-fluoro-2-methylphenyl)-N-cyclohexylpyridazin-3-carboxamide]: the half-maximal inhibitory concentration (IC50) in data set [1] was 5 to 10 nM; in data set [2], < 5 nM.
As for `Cc1c(F)cc(C(=O)NC2CC2)cc1-c1ccc(C(=O)N(C)C2CCCCC2)nn1` [Example 62], the results for the concentration for half-maximal inhibition (IC50) in data set [1] and in data set [2] were 5 to 10 nM and < 5 nM, respectively.
Taken in the same sequence, the figures for `Cc1c(F)cc(C(=O)NC2CC2)cc1-c1ccc(C(=O)NCC(C)C)c(F)c1` [Example 30, N^3-cyclopropyl-3′,5-difluoro-N^4′-isobutyl-6-methyl-[1,1′-biphenyl]-3,4′-dicarboxamide] were < 5 nM and < 5 nM.
In turn, `CCCN(CCC)C(=O)c1ccc(-c2cc(C(=O)NC3CC3)cc(F)c2C)cc1` [Example 20, N^3-cyclopropyl-5-fluoro-6-methyl-N^4′,N^4′-dipropyl-[1,1′-biphenyl]-3,4′-dicarboxamide] yielded an IC50 in data set [1] of 5 to 10 nM.
Take `Cc1c(F)cc(C(=O)NC2CC2)cc1-c1ccc(C(=O)N2CCCCCC2)cn1` [Example 14]: the half-inhibitory concentration (IC50) in data set [1] was in the range of 5 to 10 nM.
On the same count and under the same terms, under `CCC(C)(C)NC(=O)c1ccc(-c2cc(C(=O)NC3CC3)cc(F)c2C)cc1N` [Example 41, 3′-amino-N^3-cyclopropyl-5-fluoro-6-methyl-N^4′-(tertpentyl)-[1,1′-biphenyl]-3,4′-dicarboxamide] stands < 5 nM.
As for `Cc1c(F)cc(C(=O)NC2CC2)cc1-c1ccc(C(=O)NC2CCCC2)c(F)c1` [Example 32, N^4′-cyclopentyl-N^3-cyclopropyl-3′,5-difluoro-6-methyl-[1,1′-biphenyl]-3,4′-dicarboxamide], the IC50 in data set [1] and in data set [2] was < 5 nM each time.
